Experimental findings from ChEMBL document CHEMBL4610118 (J Med Chem, 2020) are described below.

Some results are limits rather than exact numbers.

The experiment deals with CDK7/Cyclin H/MNAT1 (Homo sapiens, UniProt P50613).
Chain of CDK7/Cyclin H/MNAT1 (P51946 whole entry): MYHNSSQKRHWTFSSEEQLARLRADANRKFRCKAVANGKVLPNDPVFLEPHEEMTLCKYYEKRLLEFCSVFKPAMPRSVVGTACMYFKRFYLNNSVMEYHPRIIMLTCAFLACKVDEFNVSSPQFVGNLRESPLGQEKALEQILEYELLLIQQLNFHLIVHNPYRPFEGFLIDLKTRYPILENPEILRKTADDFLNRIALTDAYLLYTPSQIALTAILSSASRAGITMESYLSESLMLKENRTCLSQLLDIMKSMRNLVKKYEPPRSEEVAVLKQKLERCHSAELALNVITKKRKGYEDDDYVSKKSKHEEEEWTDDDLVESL
Chain of CDK7/Cyclin H/MNAT1 (P50613 whole entry): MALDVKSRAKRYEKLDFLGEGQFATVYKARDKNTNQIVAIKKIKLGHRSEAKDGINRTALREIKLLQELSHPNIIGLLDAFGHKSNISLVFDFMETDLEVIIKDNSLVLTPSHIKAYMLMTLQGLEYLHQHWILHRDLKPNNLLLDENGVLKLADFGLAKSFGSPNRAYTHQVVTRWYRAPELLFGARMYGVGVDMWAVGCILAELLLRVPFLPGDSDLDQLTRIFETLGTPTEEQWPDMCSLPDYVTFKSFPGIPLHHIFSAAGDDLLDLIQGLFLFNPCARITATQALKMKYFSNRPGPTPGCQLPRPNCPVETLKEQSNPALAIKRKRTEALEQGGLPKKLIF
Chain of CDK7/Cyclin H/MNAT1 (P51948 whole entry, further chain): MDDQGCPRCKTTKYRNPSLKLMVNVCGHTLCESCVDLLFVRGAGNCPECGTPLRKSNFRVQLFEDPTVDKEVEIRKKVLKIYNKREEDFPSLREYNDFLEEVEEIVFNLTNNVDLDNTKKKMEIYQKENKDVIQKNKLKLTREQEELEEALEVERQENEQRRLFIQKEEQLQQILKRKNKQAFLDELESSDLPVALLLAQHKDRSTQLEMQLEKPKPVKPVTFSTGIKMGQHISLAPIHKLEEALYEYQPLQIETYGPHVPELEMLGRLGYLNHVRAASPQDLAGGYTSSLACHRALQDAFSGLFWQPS
Description: Inhibition of recombinant human full-length His-tagged CDK7/Cyclin H/MNAT1 expressed in baculovirus infection system using Cdk7/9tide as substrate measured after 1 hr by Alexa Fluor 647 ADP Tracer-based Adapta assay
As for `C=CC(=O)Nc1ccc(C(=O)N2CCC[C@@H](Nc3ncc(SCc4ncc(C(C)(C)C)o4)s3)C2)cc1C(F)(F)F`, the IC50 – broadly, the concentration needed to halve the response being measured – turned out to be 3.49 µM. This lies in the single-digit micromolar range. For `C=CC(=O)Nc1ccc(C(=O)N2CC(Nc3ncc(SCc4ncc(C(C)(C)C)o4)s3)CC(F)(F)C2)cc1` (stereo not given) the value was 9.6 µM; for `C=CC(=O)Nc1ccc(C(=O)N2CCC[C@@H](Nc3nc(C)c(SCc4ncc(C(C)(C)C)o4)s3)C2)cc1`, greater than 10 µM.

With `C=CC(=O)Nc1ccc(C(=O)N2CCC[C@@H](Nc3ncc(SCc4ccncc4)s3)C2)cc1`, the IC50 is greater than 10 µM. The result for `C=CC(=O)Nc1ccc(C(=O)N2CCC[C@@H](Nc3ncc(SCc4ncc(C(C)(C)C)o4)s3)[C@H]2C)cc1` reads 7.79 µM; that for `C=CC(=O)Nc1ccc(C(=O)N2CCC[C@@H](Nc3ncc(SCc4ncc(C(C)(C)C)o4)s3)C2)cc1F`, 5.54 µM; that for `C=CC(=O)Nc1ccc(C(=O)N2C[C@H](Nc3ncc(SCc4ncc(C(C)(C)C)o4)s3)CC[C@@H]2C)cc1`, 0.609 µM.

`C=CC(=O)Nc1ccc(C(=O)N2CCC[C@@H](Nc3ncc(SCc4ncc(C(C)(C)C)o4)s3)C2)nc1`: the IC50 was 3.89 µM. Molecule `C=CC(=O)Nc1ccc(C(=O)N2CCC[C@@H](Nc3ncc(Cl)c(SCc4ncc(C(C)(C)C)o4)n3)C2)cc1` had an IC50 of 5.12 µM. The result for `C=CC(=O)Nc1ccc(C(=O)N2CCC[C@@H](Nc3ncc([S+]([O-])Cc4ncc(C(C)(C)C)o4)s3)C2)cc1` (stereo not given in full) reads greater than 10 µM.
